How the values were obtained:
[1] = system: antibodies in sera from SARS patients (sera 1a, 1b, 2, 6, 37, 62, London, SARS-yellow, SARS-green); assay type: binding, human; set-up: Binding of serum 6 to linear peptides of protein X1 of SARS-CoV Urbani / Binding of serum 37 to linear peptides of protein X1 of SARS-CoV Urbani / Binding of serum 6 to looped/cyclic peptide (PEPSCAN-ELISA) / Binding of serum 37 to looped/cyclic peptide (PEPSCAN-ELISA) / Binding of serum 37 to looped/cyclic peptides of protein X1 of SARS-CoV Urbani / Binding of serum 6 to linear peptides of protein X2 / Binding of serum 37 to linear peptides of protein X2 / Binding of serum 37 to looped/cyclic peptides of protein X2 of SARS-CoV Urbani / Binding of serum 6 to linear peptides of protein M of SARS-CoV Urbani / Binding of serum 37 to linear peptides of protein M of SARS-CoV Urbani / Binding of serum 6 to looped/cyclic peptides of protein M of SARS-CoV Urbani / Binding of serum 37 to looped/cyclic peptides of protein M of SARS-CoV Urbani / Binding of serum 6 to linear peptides of protein X3 of SARS-CoV Urbani / Binding of serum 37 to linear peptides of protein X3 of SARS-CoV Urbani / Binding of serum 37 to looped/cyclic peptides of protein X3 of SARS-CoV Urbani / Binding of serum 6 to linear peptides of protein X4 of SARS-CoV Urbani / Binding of serum 37 to linear peptides of protein X4 of SARS-CoV Urbani / Binding of serum 37 to looped/cyclic peptides of protein X4 of SARS-CoV Urbani / Binding of serum 6 to linear peptides of protein X5 of SARS-CoV Urbani / Binding of serum 37 to linear peptides of protein X5 of SARS-CoV Urbani / Binding of serum 37 to looped/cyclic peptides of protein X5 of SARS-CoV Urbani / Binding of serum 6 to linear peptides of protein N of SARS-CoV Urbani / Binding of serum 37 to linear peptides of protein N of SARS-CoV Urbani / Binding of serum 6 to linear peptide (PEPSCAN-ELISA) / Binding of serum 1a to looped/cyclic peptides of protein N of SARS-CoV Urbani / Binding of serum 1b to looped/cyclic peptides of protein N of SARS-CoV Urbani / Binding of serum 2 to looped/cyclic peptides of protein N of SARS-CoV Urbani / Binding of serum 6 to looped/cyclic peptides of protein N of SARS-CoV Urbani / Binding of serum 37 to looped/cyclic peptides of protein N of SARS-CoV Urbani / Binding of serum 62 to looped/cyclic peptides of protein N of SARS-CoV Urbani / Binding of serum London to looped/cyclic peptides of protein N of SARS-CoV Urbani / Binding of serum SARS-green to looped/cyclic peptides of protein N of SARS-CoV Urbani: unit not given here
[2] = system: control sera (pooled serum of ten healthy LUMC hospital workers; commercial negative donor pooled serum from the Dutch bloodbank); assay type: binding, human; set-up: Binding of Control serum LUMC to linear peptides / Binding of Control serum Blood-bank to linear peptides / Binding of Control serum LUMC to looped peptides / Binding of Control Serum Blood-Bank to Looped peptides / Binding of Control serum LUMC to linear peptides of the protein M of SARS-CoV Urbani / Binding of Control serum Blood-bank to linear peptides of the protein M of SARS-CoV Urbani / Binding of Control serum LUMC to looped peptides of the protein M of SARS-CoV Urbani / Binding of Control Serum Blood-Bank to Looped peptides of the protein M of SARS-CoV Urbani: unit not given here
[3] = system: rabbit serum obtained by immunizing a rabbit with the SARS-CoV strain Frankfurt 1; assay type: binding; set-up: Binding of a rabbit serum to linear peptides / Binding of a rabbit serum to looped peptides / Rabbit serum linear peptides / Rabbit serum looped peptides / Binding of a rabbit serum to linear peptides of protein N of SARS-CoV Urbani (Rabbit serum linear peptides) / Binding of a rabbit serum to looped/cyclic peptides of protein N of SARS-CoV Urbani (Rabbit serum looped peptides): unit not given here
[4] = system: recombinant human anti-SARS-CoV antibody 03-018; assay type: binding; set-up: Binding of antibody 03-018 to linear peptides of the N protein of SARS-CoV Urbani / Binding of antibody 03-018 to looped/cyclic peptides of the N protein of SARS-CoV Urbani: unit not given here

| Sequence | Binding of serum 1a to linear peptides of protein N of SARS-CoV Urbani [1] | Binding of serum 1a to looped/cyclic peptides of protein N of SARS-CoV Urbani [1] | Binding of serum 1b to linear peptides of protein N of SARS-CoV Urbani [1] | Binding of serum 1b to looped/cyclic peptides of protein N of SARS-CoV Urbani [1] | Binding of serum 2 to linear peptides of protein N of SARS-CoV Urbani [1] | Binding of serum 2 to looped/cyclic peptides of protein N of SARS-CoV Urbani [1] | Binding of serum 6 to linear peptides of protein N of SARS-CoV Urbani [1] | Binding of serum 6 to looped/cyclic peptides of protein N of SARS-CoV Urbani [1] | Binding of serum 37 to linear peptides of protein N of SARS-CoV Urbani [1] | Binding of serum 37 to looped/cyclic peptides of protein N of SARS-CoV Urbani [1] | Binding of serum 62 to looped/cyclic peptides of protein N of SARS-CoV Urbani [1] | Binding of serum London to looped/cyclic peptides of protein N of SARS-CoV Urbani [1] | Binding of serum SARS-green to looped/cyclic peptides of protein N of SARS-CoV Urbani [1] | Binding of serum SARS-yellow to looped/cyclic peptides of protein N of SARS-CoV Urbani [1] | Binding of Control Serum Blood-Bank to Looped peptides [2] | Binding of Control serum Blood-bank to linear peptides [2] | Binding of Control serum LUMC to linear peptides [2] | Binding of Control serum LUMC to looped peptides [2] | Binding of antibody 03-018 to linear peptides of the N protein of SARS-CoV Urbani [4] | Binding of antibody 03-018 to looped/cyclic peptides of the N protein of SARS-CoV Urbani [4] | also measured |
| --- | --- | --- | --- | --- | --- | --- | --- | --- | --- | --- | --- | --- | --- | --- | --- | --- | --- | --- | --- | --- | --- |
| GPDDQIGYYRRATRR | 0.2 | 0.4 | 0.1 | 0.3 | 0.2 | 0.5 | 0.2 | 0.4 | 0.6 | 0.8 | 0.8 | 0.5 | 0.6 | 0.9 | 0.9 | 0.8 | 0.8 | 0.9 | 0.1 | 0.3 | Binding of serum 62 to linear peptides of protein N of SARS-CoV Urbani [1]: 0.6; Binding of serum London to linear peptides of protein N of SARS-CoV Urbani [1]: 0.4; Binding of serum SARS-green to linear peptides of protein N of SARS-CoV Urbani [1]: 0.3; Binding of serum SARS-yellow to linear peptides of protein N of SARS-CoV Urbani [1]: 0.6; Recognition of the peptide by the rabbit serum [3]: recognized |
| ANKEGIVWVATEGAL | 0.2 | 0.4 | 0.1 | 0.3 | 0.2 | 0.3 | 0.2 | 0.2 | 0.8 | 0.6 | 0.5 | 0.3 | 0.4 | 0.6 | 0.5 | 0.6 | 0.6 | 0.6 | 0.1 | 0.2 | Binding of serum 62 to linear peptides of protein N of SARS-CoV Urbani [1]: 0.7; Binding of serum London to linear peptides of protein N of SARS-CoV Urbani [1]: 0.4; Binding of serum SARS-green to linear peptides of protein N of SARS-CoV Urbani [1]: 0.4; Binding of serum SARS-yellow to linear peptides of protein N of SARS-CoV Urbani [1]: 0.7; Binding of a rabbit serum to linear peptides of protein N of SARS-CoV Urbani (Rabbit serum linear peptides) [3]: 0.1; Binding of a rabbit serum to looped/cyclic peptides of protein N of SARS-CoV Urbani (Rabbit serum looped peptides) [3]: 0.3 |
| FFGMSRIGMEVTPSG | 0.3 | 0.3 | 0.1 | 0.2 | 0.2 | 0.4 | 0.2 | 0.1 | 0.7 | 0.5 | 0.4 | 0.3 | 0.1 | 0.4 |  |  |  |  | 0.1 | 0.2 | Binding of serum 62 to linear peptides of protein N of SARS-CoV Urbani [1]: 0.7; Binding of serum London to linear peptides of protein N of SARS-CoV Urbani [1]: 0.6; Binding of serum SARS-green to linear peptides of protein N of SARS-CoV Urbani [1]: 0.3; Binding of serum SARS-yellow to linear peptides of protein N of SARS-CoV Urbani [1]: 0.8; Control Serum Blood-Bank Looped peptides [2]: 0.5; Control serum Blood-bank linear peptides [2]: 0.8; Control serum LUMC linear peptides [2]: 0.7; Control serum LUMC looped peptides [2]: 0.5; Binding of a rabbit serum to linear peptides of protein N of SARS-CoV Urbani (Rabbit serum linear peptides) [3]: 0.2; Binding of a rabbit serum to looped/cyclic peptides of protein N of SARS-CoV Urbani (Rabbit serum looped peptides) [3]: 0.4 |
| RRGPEQTQGNFGDQD |  | 0.3 |  | 0.2 |  | 0.2 |  | 0.1 |  | 0.4 | 0.2 | 0.2 | 0.6 | 0.4 | 0.3 | 0.6 | 0.6 | 0.4 | 0.1 | 0.2 | Recognition of the peptide by sera of SARS-CoV infected individuals, and form (linear, looped/cyclic) in which it is recognized [1]: recognized in linear form; Binding of a rabbit serum to linear peptides of protein N of SARS-CoV Urbani (Rabbit serum linear peptides) [3]: 0.1; Binding of a rabbit serum to looped/cyclic peptides of protein N of SARS-CoV Urbani (Rabbit serum looped peptides) [3]: 0.1 |
| VTQAFGRRGPEQTQG |  | 0.3 |  | 0.2 |  | 0.2 |  | 0.1 |  | 0.4 | 0.3 | 0.3 | 0.2 | 0.3 | 0.6 | 0.8 | 0.7 | 0.5 | 0.1 | 0.2 | Binding of serum 1a to linear peptide (PEPSCAN-ELISA) [1]: 0.3; Binding of serum 1b to linear peptide (PEPSCAN-ELISA) [1]: 0.1; Binding of serum 2 to linear peptide (PEPSCAN-ELISA) [1]: 0.1; Binding of serum 6 to linear peptide (PEPSCAN-ELISA) [1]: 0.2; Binding of serum 37 to linear peptide (PEPSCAN-ELISA) [1]: 0.6; Binding of serum 62 to linear peptide (PEPSCAN-ELISA) [1]: 0.5; Binding of serum London to linear peptide (PEPSCAN-ELISA) [1]: 0.5; Binding of serum SARS-green to linear peptide (PEPSCAN-ELISA) [1]: 0.5; Binding of serum SARS-yellow to linear peptide (PEPSCAN-ELISA) [1]: 0.7; Recognition of the peptide by the rabbit serum [3]: recognized |

From patent US20070128217A1 (priority 2003, published 2007)
